≈ marks a conversion by molar mass, not a printed value.
Assays:
Type in all cases: cell-based
S. aureus UC-76 SA-1 = experiment: in vitro antibacterial activity (MIC), S. aureus; settings: Staphylococcus aureus, UC76, S. aureus UC-76 SA-1
Source text: (§1) The in vitro antibacterial activity of the compounds of the present invention may be assessed by following procedures recommended in (1) National Committee for Clinical Laboratory Standards (January 2003), Methods for dilution antimicrobial tests for bacteria that grow aerobically, Approved Standard (6th ed), M7-A6, NCCLS, Wayne, Pa.; (2) National Committee for Clinical Laboratory Standards (March 2001), Methods for antimicrobial susceptibility testing of anaerobic bacteria, Approved Standard (5th ed), M11-A4, NCCLS, Wayne, Pa.; (3) National Committee for Clinical Laboratory Standards (Jan. 2003), MIC testing supplemental tables, M100-S13 (for use with M7-A6), NCCLS, Wayne, Pa.; and (4) Murray P R, Baron E J, Jorgensen J H, et al. Manual of Clinical Microbiology (8th ed) Washington, D.C.: American Society for Microbiology Press, 2003. The MIC value is the lowest concentration of drug which prevented macroscopically visible growth under the conditions of the test.

E. faecalis MGH-2 EF 1-1 = experiment: in vitro antibacterial activity (MIC), E. faecalis; settings: Enterococcus faecalis, MGH2EF11
Source text: as §1

S. pneumoniae SV1 SP-3 = experiment: in vitro antibacterial activity (MIC), S. pneumoniae; settings: Streptococcus pneumoniae, SV1SP3
Source text: as §1

| SMILES | MIC90 (S. aureus UC-76 SA-1) | MIC90 (E. faecalis MGH-2 EF 1-1) | MIC90 (S. pneumoniae SV1 SP-3) |
| --- | --- | --- | --- |
| CC(=O)NC[C@H]1CN(c2ccc3c(c2)CC(=O)N3CCF)C(=O)O1 [Example 9, (S)—N-{3-[1-(2-fluoro-ethyl)-2-oxo-2,3-dihydro-1H-indol-5-yl]-2-oxo-oxazolidin-5-ylmethyl}-acetamide] | 8 µg/mL (≈ 23.9 µM) | 2 µg/mL (≈ 5.96 µM) | 2 µg/mL (≈ 5.96 µM) |
| CC(=O)NC[C@H]1CN(c2cc(F)c3c(c2)CC(=O)N3CC2CC2)C(=O)O1 [Example 29, (S)—N-[3-(1-cyclopropylmethyl-7-fluoro-2-oxo-2,3-dihydro-1H-indol-5-yl)-2-oxo-oxazolidin-5-ylmethyl]-acetamide] | 2 µg/mL (≈ 5.53 µM) | 2 µg/mL (≈ 5.53 µM) | 2 µg/mL (≈ 5.53 µM) |
| CC(=O)NC[C@H]1CN(c2ccc3c(c2)CC(=O)N3CC2CC2)C(=O)O1 [Example 26, (S)—N-[3-(1-cyclopropylmethyl-2-oxo-2,3-dihydro-1H-indol-5-yl)-2-oxo-oxazolidin-5-ylmethyl]-acetamide] | 8 µg/mL (≈ 23.3 µM) | 4 µg/mL (≈ 11.6 µM) | 4 µg/mL (≈ 11.6 µM) |
| CC(=O)NC[C@H]1CN(c2ccc3c(c2)CC(=O)N3C2CC2)C(=O)O1 [Example 21, (S)—N-[3-(1-cyclopropyl-2-oxo-2,3-dihydro-1H-indol-5-yl)-2-oxo-oxazolidin-5-ylmethyl]-acetamide] | 8 µg/mL (≈ 24.3 µM) | 4 µg/mL (≈ 12.1 µM) | 2 µg/mL (≈ 6.07 µM) |
| CC(=O)NC[C@H]1CN(c2ccc3c(c2)CC(=O)N3C(C)C)C(=O)O1 [Example 13, (S)—N-[3-(1-isopropyl-2-oxo-2,3-dihydro-1H-indol-5-yl)-2-oxo-oxazolidin-5-ylmethyl]-acetamide] | 4 µg/mL (≈ 12.1 µM) | 4 µg/mL (≈ 12.1 µM) | 2 µg/mL (≈ 6.04 µM) |
| CC(=O)NC[C@H]1CN(c2cc(F)c3c(c2)CC(=O)N3CCF)C(=O)O1 [Example 11, (S)—N-{3-[7-fluoro-1-(2-fluoro-ethyl)-2-oxo-2,3-dihydro-1H-indol-5-yl]-2-oxo-oxazolidin-5-ylmethyl}-acetamide] | 4 µg/mL (≈ 11.3 µM) | 2 µg/mL (≈ 5.66 µM) | 1 µg/mL (≈ 2.83 µM) |
| CCC(=O)NC[C@H]1CN(c2ccc3c(c2)CC(=O)N3CC)C(=O)O1 [Example 6, (S)—N-[3-(1-ethyl-2-oxo-2,3-dihydro-1H-indol-5-yl)-2-oxo-oxazolidin-5-ylmethyl]-propionamide] | 4 µg/mL (≈ 12.1 µM) | 2 µg/mL (≈ 6.04 µM) | 2 µg/mL (≈ 6.04 µM) |
| CCC(=O)NC[C@H]1CN(c2ccc3c(c2)CC(=O)N3C(C)C)C(=O)O1 [Example 14, (S)—N-[3-(1-isopropyl-2-oxo-2,3-dihydro-1H-indol-5-yl)-2-oxo-oxazolidin-5-ylmethyl]-propionamide] | 8 µg/mL (≈ 23.2 µM) | 8 µg/mL (≈ 23.2 µM) | 4 µg/mL (≈ 11.6 µM) |
| CCC(=O)NC[C@H]1CN(c2cc(F)c3c(c2)CC(=O)N3C)C(=O)O1 [Example 4, (S)—N-[3-(7-fluoro-1-methyl-2-oxo-2,3-dihydro-1H-indol-5-yl)-2-oxo-oxazolidin-5-ylmethyl]-propionamide] | 8 µg/mL (≈ 23.9 µM) | 4 µg/mL (≈ 11.9 µM) | 2 µg/mL (≈ 5.96 µM) |
| CCC(=O)NC[C@H]1CN(c2ccc3c(c2)CC(=O)N3C(C)CC)C(=O)O1 (stereo partly drawn) [Example 25, (S)—N-[3-(1-sec-butyl-2-oxo-2,3-dihydro-1H-indol-5-yl)-2-oxo-oxazolidin-5-ylmethyl]-propionamide] | 8 µg/mL (≈ 22.3 µM) | 8 µg/mL (≈ 22.3 µM) | 8 µg/mL (≈ 22.3 µM) |
| CCC(=O)NC[C@H]1CN(c2cc(F)c3c(c2)CC(=O)N3CCF)C(=O)O1 [Example 12, (S)—N-{3-[7-fluoro-1-(2-fluoro-ethyl)-2-oxo-2,3-dihydro-1H-indol-5-yl]-2-oxo-oxazolidin-5-ylmethyl}-propionamide] | 8 µg/mL (≈ 21.8 µM) | 4 µg/mL (≈ 10.9 µM) | 4 µg/mL (≈ 10.9 µM) |
| CC(=O)NC[C@H]1CN(c2cc(F)c3c(c2)CC(=O)N3C2CC2)C(=O)O1 [Example 23, (S)—N-[3-(1-cyclopropyl-7-fluoro-2-oxo-2,3-dihydro-1H-indol-5-yl)-2-oxo-oxazolidin-5-ylmethyl]-acetamide] | 8 µg/mL (≈ 23 µM) | 4 µg/mL (≈ 11.5 µM) | 4 µg/mL (≈ 11.5 µM) |
| CCC(=O)NC[C@H]1CN(c2ccc3c(c2)CC(=O)N3CC2CC2)C(=O)O1 [Example 27, (S)—N-[3-(1-cyclopropylmethyl-2-oxo-2,3-dihydro-1H-indol-5-yl)-2-oxo-oxazolidin-5-ylmethyl]-propionamide] | 8 µg/mL (≈ 22.4 µM) | 8 µg/mL (≈ 22.4 µM) | 4 µg/mL (≈ 11.2 µM) |
| CCN1C(=O)Cc2cc(N3C[C@H](CNC(C)=O)OC3=O)ccc21 [Example 5, (S)—N-[3-(1-ethyl-2-oxo-2,3-dihydro-1H-indol-5-yl)-2-oxo-oxazolidin-5-ylmethyl]-acetamide] | 8 µg/mL (≈ 25.2 µM) | 8 µg/mL (≈ 25.2 µM) | 2 µg/mL (≈ 6.3 µM) |
